Results on three compounds are retold here after patent US5420142A, “Certain 3-formyl-1, 4-dihydropyridines and their pharmaceutical composition and use” (Bayer Aktiengesellschaft, priority 1991, dated 1995).

In this experiment the test system is isolated guinea pig heart auricles. Nature of the experiment: Substance effects on the contraction amplitude of isolated guinea pig heart auricles. The settings on record: Cavia porcellus, active compound concentration 10^-4 g/l, read-out: Contractility (% control). An excerpt: The cardiac and vascular effects were found on isolated perfused guinea pig hearts. To this end, the hearts of guinea pigs of 250 to 350 g weight are used. The animals are killed by a blow to the head, the thorax is opened, and a metal cannula is tied into the exposed aorta. The heart is separated out of the thorax with the lungs and connected to the perfusion apparatus via an aortic cannula with continuous perfusion. The lungs are separated at the roots of the lung. The perfusion medium used is a Krebs-Henseleit solution (1) (118.5 mmol/l of NaCl, 4.75 mmol/l of KCl, 1.19 mmol/1 of KH2 PO4, 1.19 mmol/l of MgSO4, 25 mmol/l of NaHCO3, 0.013 mmol/l of Na2 EDTA), the CaCl2 content of which is 1.2 mmol/l. 10 mmol/l of glucose are added as an energy-producing substrate. The solution is filtered free from particles before perfusion. The solution is aerated with carbogen (95% O2, 5% CO2) to maintain the pH 7.4. The hearts are perfused with a constant flow (10 ml/min) at 32° C. by means of a peristaltic pump.
For the measurement of cardiac function, a liquid-filled latex balloon which is connected to a pressure transducer via a liquid column is inserted into the left ventricle through the left auricle, and the isovolumetric contractions are recorded on a rapid recorder (Opie, L., J. Physiol., 180 (1965), 529-541). The perfusion pressure is recorded by means of a pressure transducer which is connected to the perfusion system upstream of the heart. Under these conditions, a reduction in the perfusion pressure indicates a coronary dilation, and an increase or decrease in the left-ventricular contraction amplitude indicates […] in the heart contractility. The compounds according to the invention are perfused into the perfusion system in suitable dilutions Just upstream of the isolated heart.
Substance effects on the contraction amplitude of isolated guinea pig heart auricles at an active compound concentration of 10^-4 g/l.
For `CCOC(=O)C1=C(C)NC(C)=C(C=O)C1c1cccc2ncc(-c3ccccc3)cc12` (stereo not drawn) [Example 1, Ethyl 1,4-dihydro-2,6-dimethyl-3-formyl-4-(3-phenylquinolin-5-yl)-pyridine-5-carboxylate], the activation at 0.1 µg/mL came out at 32%.
For `CC1=C(C=O)C(c2cccc3ncc(-c4ccccc4)cc23)C(C(=O)OC(C)C)=C(C)N1` (stereo not drawn) [Example 3] the value was 31%.
On to `COC(=O)C1=C(C)NC(C)=C(C=O)C1c1cccc2ncc(-c3ccccc3)cc12` (stereo not drawn) [Example 4], for which the activation at 0.1 µg/mL came to 41%.
